Our source for the IC50 and IC90 values is ChEMBL document CHEMBL4483862, “Open-source discovery of chemical leads for next-generation chemoprotective antimalarials” (2018).

This experiment deals with Plasmodium berghei. As to the kind of experiment: Luciferase/luciferin-expressing antifolate-resistant parasites were used to infect a culture of HepG2 cells that were pre-incubated with compounds. Infected hepatocytes emit light due to the luciferase reaction. Assay results are presented as the percent inhibition of light emission compared to control. […]. In kind it is functional. The settings on record: sporozoite; for IC90: read-out: LUCIFERASE INFECTION ASSAY - IC90.

[1] abbreviates: read-out: LUCIFERASE INFECTION ASSAY - IC50.

Bounds are passed on as bounds.

One may read the IC50 as the concentration needed to halve the response being measured. As usually defined, the IC90 is the point of the concentration-response curve where the effect stands at 90%.

For `CCOc1ccc(OCc2ccc(C(=O)NNC3CC(=O)N(CCOC)C3=O)cc2)cc1` (stereo not drawn), the IC90 was greater than 10 µM. Moreover, under setting [1], the IC50 is greater than 10 µM.
For `O=C(Nc1nc(-c2ccccn2)cs1)c1nn(-c2ccc(F)cc2)c2c1CCCC2`, the IC90 turned out to be 8.94 µM. In addition, where the note is “PBLUC_HILL_SLOPE 4.43, PBLUC_R_SQUARED 0.595, read-out: LUCIFERASE INFECTION ASSAY - IC50”, the IC50 came to 5.45 µM.
Turning to `CCN(CC)S(=O)(=O)c1cc(C(=O)c2c(-c3ccc(Cl)cc3)cc3ccccn23)ccc1F`, the concentration for an effect of 90% (IC90) is greater than 10 µM. Further, the IC50 (HEPG2TOX_HILL_SLOPE 0.422, HEPG2TOX_R_SQUARED 0.219, read-out: LUCIFERASE INFECTION ASSAY - IC50) is greater than 10 µM.
In the case of `CC(C)n1c(Sc2ncc([N+](=O)[O-])s2)nc2cc(C(F)(F)F)ccc21`, the IC90 turned out to be 6.15 µM. Moreover, the IC50 (FFLUC_HILL_SLOPE 0.818, FFLUC_R_SQUARED 0.623, HEPG2TOX_HILL_SLOPE 9.88, HEPG2TOX_R_SQUARED 0.799, PBLUC_HILL_SLOPE 37.4, PBLUC_R_SQUARED 0.0575, read-out: LUCIFERASE INFECTION ASSAY - IC50) is 5.8 µM.
For the compound `Cc1ccc2[nH]c3c(c2c1)CCCC3N` (stereo not drawn), the IC90 turned out to be 10.5 µM. The concentration for half-maximal inhibition (IC50) (HEPG2TOX_HILL_SLOPE 3.36, HEPG2TOX_R_SQUARED 0.51, PBLUC_HILL_SLOPE 2.39, PBLUC_R_SQUARED 0.343, read-out: LUCIFERASE INFECTION ASSAY - IC50) was found to be 4.17 µM.
`CN(CC1COc2ccccc2O1)C(=O)Nc1nc2ccccc2s1` (stereo not drawn): the concentration for an effect of 90% (IC90) is greater than 10 µM.
Regarding `CC(C)c1nc(N2CCN(C)CC2)c(C#N)c2c1CCCC2`, the IC90 was greater than 11.1 µM. Also, the half-maximal inhibitory concentration (IC50) (FFLUC_HILL_SLOPE 0.534, FFLUC_R_SQUARED 0.16, read-out: LUCIFERASE INFECTION ASSAY - IC50) was greater than 11.1 µM.
`CN(C)Cc1ccccc1NC(=O)Nc1ccc(Cl)cc1`: the IC90 came to 7.23 µM. Also, the IC50 (PBLUC_HILL_SLOPE 3.91, PBLUC_R_SQUARED 0.658, read-out: LUCIFERASE INFECTION ASSAY - IC50) is 4.13 µM.
In the case of `Cc1ccc2cc(COC(=O)c3cc4c(s3)CCC(C)C4)c(Cl)nc2c1` (stereo not drawn), the 90% effect concentration (IC90) was greater than 10 µM. In addition, the 50% inhibitory concentration (IC50) under setting [1] was greater than 10 µM.
Consider `O=c1nc(/C=C/c2cccc3cccnc23)[nH]c2sc3c(c12)CCCCC3`, for which the 90% effect concentration (IC90) was greater than 10 µM. The IC50 under setting [1] was greater than 10 µM.
In the case of `Cc1noc(/C=C/c2cc(C(F)(F)F)cc(C(F)(F)F)c2)c1[N+](=O)[O-]`, the IC90 is greater than 9.01 µM. Moreover, the IC50 under setting [1] was greater than 9.01 µM.
Take `Cc1cc(O)c(C(=O)/C=C/c2cn(-c3ccccc3C)nc2-c2ccccc2)c(=O)o1`: the concentration for an effect of 90% (IC90) was greater than 10 µM. Where the note is “FFLUC_HILL_SLOPE 4.53, FFLUC_R_SQUARED 0.503, PBLUC_HILL_SLOPE 0.894, PBLUC_R_SQUARED 0.655, read-out: LUCIFERASE INFECTION ASSAY - IC50”, the half-maximal inhibitory concentration (IC50) was 6.09 µM.
`Cc1ccccc1-c1nc2oc3ccccc3c(=O)c2c(=O)n1Cc1ccccc1`: the IC90 worked out at 5.78 µM. The IC50 (PBLUC_HILL_SLOPE 4.15, PBLUC_R_SQUARED 0.52, read-out: LUCIFERASE INFECTION ASSAY - IC50) came to 3.4 µM.
Regarding `Cc1cc(Br)ccc1NC(=O)CNC(=O)CCC(=O)N1CCC(c2ccccc2)=N1`, the IC90 was greater than 10 µM. For the same compound, under setting [1], the IC50 is greater than 10 µM.
Consider `O=C(CN1CCN(C(=O)C23CC4CC(CC(C4)C2)C3)CC1)c1ccc[nH]1`, for which the IC90 was greater than 10 µM. Under setting [1], the IC50 is greater than 10 µM.
`Cc1ccc(Oc2ccc(S(=O)(=O)NCCN(C)C)cc2)cc1`: the 90% effect concentration (IC90) was greater than 10 µM. Under setting [1], the IC50 is greater than 10 µM.
`Fc1ccc(-c2nc3ccc(Cl)cc3[nH]2)cc1`: the 90% effect concentration (IC90) is greater than 13.4 µM. In addition, the 50% inhibitory concentration (IC50) under setting [1] is greater than 13.4 µM.
As to `O=C(NCC12CC3CC(CC(C3)C1)C2)c1ccc2ccccc2c1`, the IC90 was greater than 10 µM. Further, under setting [1], the half-maximal inhibitory concentration (IC50) is greater than 10 µM.
With `COc1ccc(NC(=O)Cc2cccs2)cc1S(=O)(=O)Nc1ccc(Cl)cc1`, the IC90 was greater than 10 µM. Further, the IC50 (FFLUC_HILL_SLOPE 1.73, FFLUC_R_SQUARED 0.168, HEPG2TOX_HILL_SLOPE 1.26, HEPG2TOX_R_SQUARED 0.964, PBLUC_HILL_SLOPE 12.3, PBLUC_R_SQUARED 0.183, read-out: LUCIFERASE INFECTION ASSAY - IC50) was 9.75 µM.
With `OCc1ccc(-c2ccc3ncc(-c4cccnc4)n3n2)cc1`, the IC90 was determined as 1.91 µM. For the setting “HEPG2TOX_HILL_SLOPE 8.03, HEPG2TOX_R_SQUARED 0.878, PBLUC_HILL_SLOPE 5.07, PBLUC_R_SQUARED 0.745, read-out: LUCIFERASE INFECTION ASSAY - IC50”, the IC50 was found to be 1.24 µM.
With `COC(=O)c1cc(C#N)c(S(C)(=O)=O)s1`, the 90% effect concentration (IC90) is greater than 13.5 µM. Besides, the 50% inhibitory concentration (IC50) (HEPG2TOX_HILL_SLOPE 3.75, HEPG2TOX_R_SQUARED 0.937, PBLUC_HILL_SLOPE 11, PBLUC_R_SQUARED 0.132, read-out: LUCIFERASE INFECTION ASSAY - IC50) was determined as 12.1 µM.
Turning to `N#Cc1ccccc1S(=O)(=O)NC(=O)Cn1cc(-c2cccc(F)c2)nn1`, the concentration for an effect of 90% (IC90) is greater than 8.56 µM. Besides, the IC50 under setting [1] is greater than 8.56 µM.
For `CCCCN(C(=O)CCC(=O)OCC(=O)NC(=O)NCC)c1c(N)n(CCC)c(=O)[nH]c1=O`, the IC90 was greater than 10 µM. In addition, the IC50 under setting [1] is greater than 10 µM.
On to `C[C@]12CC[C@@H]3c4ccc(O)cc4CC[C@H]3[C@@H]1CC[C@@H]2O` [ESTRADIOL], for which the IC90 is 9.85 µM. The IC50 under setting [1] was 5.43 µM.
For `COc1cncc(-c2cncc(Nc3cccc(Cl)c3)c2)c1`, the IC90 was determined as 9.85 µM. The IC50 (PBLUC_HILL_SLOPE 20.7, PBLUC_R_SQUARED 0.436, read-out: LUCIFERASE INFECTION ASSAY - IC50) was 8.86 µM.
`C=CCn1c(Sc2nc(C)nc3sc4c(c23)CCC4)nnc1-c1ccco1`: the IC90 is greater than 10 µM. In addition, the IC50 (FFLUC_HILL_SLOPE 38.3, FFLUC_R_SQUARED 0.259, read-out: LUCIFERASE INFECTION ASSAY - IC50) is greater than 10 µM.
On to `N#CC(C#N)=NNc1ccc(-n2ccc(C(F)(F)F)n2)cc1`, for which the concentration for an effect of 90% (IC90) is greater than 10.8 µM. The half-maximal inhibitory concentration (IC50) under setting [1] was 4.97 µM.
Taken in the same sequence, the figures for `O=C(c1ccco1)N1CCC(Nc2nc(-c3cccs3)nc3sc4c(c23)CCCC4)CC1` were greater than 10 µM and greater than 10 µM.
For the compound `Cc1ccc(NC(=O)N2[C@@H]3CC[C@@H](C3)[C@H]2c2nc3cccc(OCc4ccccc4)c3[nH]2)cc1`, the IC90 was greater than 10 µM. The 50% inhibitory concentration (IC50) under setting [1] is greater than 10 µM.
Turning to `CNc1nc2cnc(Nc3ccccc3)cc2n1-c1cccc(C(F)(F)F)c1`, the IC90 was greater than 10 µM. The concentration for half-maximal inhibition (IC50) under setting [1] was greater than 10 µM.
For `CCn1c(=S)[nH]c2cc(C(=O)N3CCN(C(c4ccc(F)cc4)c4ccc(F)cc4)CC3)ccc21`, the IC90 is greater than 10 µM. In addition, the IC50 under setting [1] is greater than 10 µM.
With `O=C(COc1ccc(C23CC4CC(CC(C4)C2)C3)cc1)N1CCCC1`, the IC90 came out at 2.75 µM. Further, for the setting “PBLUC_HILL_SLOPE 2.17, PBLUC_R_SQUARED 0.715, read-out: LUCIFERASE INFECTION ASSAY - IC50”, the IC50 was determined as 1 µM.
In the case of `O=C(Nc1nc2ccccc2[nH]1)c1cccc(S(=O)(=O)N(Cc2ccccc2)c2ccccc2Cl)c1`, the IC90 turned out to be 3.66 µM. Also, the concentration for half-maximal inhibition (IC50) (PBLUC_HILL_SLOPE 15.7, PBLUC_R_SQUARED 0.534, read-out: LUCIFERASE INFECTION ASSAY - IC50) was found to be 3.18 µM.
`CC(Nc1ncnc2ccsc12)c1nc2ccccc2n1C(F)F` (stereo not drawn): the concentration for an effect of 90% (IC90) is 7.92 µM. Also, for the setting “HEPG2TOX_HILL_SLOPE 1.22, HEPG2TOX_R_SQUARED 0.959, PBLUC_HILL_SLOPE 2.24, PBLUC_R_SQUARED 0.732, read-out: LUCIFERASE INFECTION ASSAY - IC50”, the IC50 came out at 2.97 µM.
On to `COc1cc(C(=O)OCC(=O)c2ccc(-c3ccccc3)cc2)c([N+](=O)[O-])cc1OC`, for which the IC90 was greater than 10 µM. Further, the IC50 (PBLUC_HILL_SLOPE 1.3, PBLUC_R_SQUARED 0.199, read-out: LUCIFERASE INFECTION ASSAY - IC50) was greater than 10 µM.
In the case of `N#Cc1nncn1Cc1csc(-c2cccs2)n1`, the 90% effect concentration (IC90) stood at 9.56 µM. Besides, under “PBLUC_HILL_SLOPE 12.1, PBLUC_R_SQUARED 0.315, read-out: LUCIFERASE INFECTION ASSAY - IC50”, the IC50 came out at 7.97 µM.
In the case of `Cc1ccc2c(c1)C1CN(C)CCC1N2C(=O)CCCOc1ccc(Cl)cc1Cl` (stereo not drawn), the IC90 is greater than 10 µM. In addition, the half-maximal inhibitory concentration (IC50) under setting [1] was greater than 10 µM.
In the case of `O=C(NC1CCN(c2ccc(S(=O)(=O)C(F)(F)F)cc2)CC1)C1CC1`, the IC90 came out at 2.59 µM. For the same compound, the IC50 (HEPG2TOX_HILL_SLOPE 1.52, HEPG2TOX_R_SQUARED 0.775, PBLUC_HILL_SLOPE 1.87, PBLUC_R_SQUARED 0.699, read-out: LUCIFERASE INFECTION ASSAY - IC50) was found to be 0.799 µM.
As for `C#CCOc1ccccc1/C=C1\SC(NC2CCCCC2)=NC1=O`, the IC90 came to 0.4 µM. In addition, the concentration for half-maximal inhibition (IC50) (HEPG2TOX_HILL_SLOPE 10.3, HEPG2TOX_R_SQUARED 0.343, PBLUC_HILL_SLOPE 2.57, PBLUC_R_SQUARED 0.554, read-out: LUCIFERASE INFECTION ASSAY - IC50) was determined as 0.17 µM.
With `Cc1c(-c2cccc(Cl)c2)nc2ccccc2c1C(=O)OCC(=O)C(C#N)=C1Nc2ccccc2N1`, the IC90 is greater than 10 µM. Moreover, the IC50 under setting [1] is greater than 10 µM.
Consider `O=C(Nc1cccc(Cl)c1)Nc1ccccc1N1CCCC1`, for which the IC90 was greater than 10.4 µM. In addition, the IC50 (HEPG2TOX_HILL_SLOPE 6.22, HEPG2TOX_R_SQUARED 0.342, PBLUC_HILL_SLOPE 2.56, PBLUC_R_SQUARED 0.455, read-out: LUCIFERASE INFECTION ASSAY - IC50) came out at 6.9 µM.
`Cc1ccc(-n2nc(C)c3c(C(=O)N4CCC(C)CC4)cc(-c4ccncc4)nc32)cc1`: the IC90 was greater than 10 µM. The concentration for half-maximal inhibition (IC50) under setting [1] was greater than 10 µM.
